The source made the active and inactive calls. No rule for the calls is given here.
Experiment: modifiers of cytoskeleton assembly, confirmation, imaging, high-content imaging, retest and dose response (AID 1249);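 also: compound exposure lasted 24 h before fixation; plate controls were untreated cells for no effect and reference compound treated cells for full effect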
Details: cell-based imaging, cytoskeleton assembly phenotype, high content; at 2 µM; stronger effect = higher value

| SMILES | inhibition |
| --- | --- |
| C=CCn1c(N2CCCC2)nc2c1c(=O)[nH]c(=O)n2C | -4.9% (inactive) |
| O=C(COC(=O)C1(c2ccccc2F)CCCC1)NC1CCS(=O)(=O)C1 (stereo not given) | -1% (inactive) |
| O=[N+]([O-])c1ccc(Sc2nc3ccccc3o2)c([N+](=O)[O-])c1 | 4.3% (inactive) |
| Cc1ccc(S(=O)(=O)NC(CC(=O)O)c2ccco2)cc1 (stereo not given) | 8.2% (inactive) |
| O=c1ccc(Oc2nc(N3CCOCC3)nc(N3CCOCC3)n2)nn1-c1ccccc1 | 9.9% (inactive) |
| O=C(O)c1cccc(S(=O)(=O)Nc2ccccc2Cl)c1 | -2.5% (inactive) |
| Cn1c(SCc2nc(-c3ccc(Cl)cc3)no2)nnc1-c1cccs1 | 16.1% (inactive) |
| COc1ccc(Cn2c(CCC(=O)O)nc3cccnc32)cc1 | -3% (inactive) |
| Cc1cccc(NC(=O)Cn2nc(C(F)(F)F)cc2C2CC2)c1 | -14.3% (inactive) |
| O=S(=O)(Nc1ccc(-n2cccc2)cc1)c1ccccc1 | 0.5% (inactive) |
| Cc1ccc(S(=O)(=O)N(CC(=O)NCc2ccco2)Cc2ccc(F)cc2)cc1 | -16.6% (inactive) |
| O=c1[nH]c2cccnc2n1Cc1ccccc1 | -3.8% (inactive) |
| CC1Oc2ccccc2C=C1/C=C1/SC(N2CCOCC2)=NC1=O (stereo not given) | -1.2% (inactive) |
| O=C(O)C1C2C=CC(O2)C1C(=O)Nc1ccc(S(=O)(=O)Nc2ccccc2)cc1 (stereo not given) | -5.8% (inactive) |
| CCCc1nc(SCC(=O)Nc2nnc(CC)s2)c2c(C)c(C)sc2n1 | 8.7% (inactive) |
| CSC1=NCCN1C(=O)Cc1ccc(Cl)cc1 | 3% (inactive) |
| CN(C)c1cccc(C(=O)Nc2ccc(N3CCOCC3)cc2)c1 | -5.4% (inactive) |
| COc1ccc(-c2cc(C(=O)Nc3cc(C)n(Cc4ccc(Cl)cc4)n3)no2)cc1OC | 6.8% (inactive) |
| O=[N+]([O-])c1ccc(O)c(/C=N/Nc2ccc(Cl)nn2)c1 | -6.8% (inactive) |
| CCC(C)Oc1cccc(OCCCCN2C(=O)NC(C)(C)C2=O)c1 (stereo not given) | -13.9% (inactive) |
| COc1ccc(C)cc1S(=O)(=O)Nc1cccc(SC)c1 | 3.7% (inactive) |
| CCOc1ccc2[nH]c(=O)c(CN(Cc3ccccc3)C(=O)N3CCCC3)cc2c1 | 12.4% (inactive) |
| O=S(=O)(c1cccs1)N1CCN(CC(O)COc2cccc(Br)c2)CC1 (stereo not given) | 5.3% (inactive) |
| Cc1ccc(-c2noc(CSc3nc(N)cc(N)n3)n2)cc1 | -8.4% (inactive) |

| SMILES | inhibition |
| --- | --- |
| O=C1C2CCCN2C(c2cccnc2)N1c1ccc(Cl)c(Cl)c1 (stereo not given) | 3.6% (inactive) |
| Cc1ccc(-n2nc3ccc(NC(=O)/C=C/c4ccco4)cc3n2)cc1C | -5.3% (inactive) |
| COc1ccc(Nc2nc(N3CCCC3)nc3ccccc23)c(OC)c1 | -12.3% (inactive) |
| CCOC(=O)Cn1nnnc1CN(CCc1ccccc1)Cc1cc2cc(CC)ccc2[nH]c1=O | 1.3% (inactive) |
| CCC(=O)N1c2ccc(S(=O)(=O)CCC(=O)N3CCn4c3nc3ccccc34)cc2CC1C (stereo not given) | 0% (inactive) |
| CCC(=O)Nc1cccc(NC(=O)c2cc3ccccc3o2)c1 | -5.6% (inactive) |
| Cc1cc(OCc2ccc(F)cc2)nc(-c2ccccc2O)n1 | 2.1% (inactive) |
| CSc1nc2sc(-c3ccccc3)cc2c(=O)n1N | -0.9% (inactive) |
| CCCC(C(=O)NC1CCCC1)N(CCCN1CCOCC1)C(=O)c1snc(C(N)=O)c1N (stereo not given) | -2.3% (inactive) |
| CCOc1ccc(-n2c(SCC(=O)Nc3ccc(OC)cc3)nc3c(c2=O)SCC3)cc1 | 7.9% (inactive) |
| Cc1cc(NC(=O)CSc2nc3ccccc3c(=O)n2C2CCCC2)no1 | 6.7% (inactive) |
| CC(C)(C)C(=O)/C(=C\c1cccc([N+](=O)[O-])c1)n1cncn1 | 0.1% (inactive) |
| COC(=O)CSc1nc2nc(C)c(Br)cc2[nH]1 | 1.5% (inactive) |
| CCOC(=O)N1CCN(C(=O)c2ccc3c(c2)NC(=O)C(N2CCOCC2)S3)CC1 (stereo not given) | -8.5% (inactive) |
| CC(C)(C)NC(=O)C1N(c2cccnc2)C(=O)C2C(C(=O)Nc3ccccc3F)C3(C)C=CC21O3 (stereo not given) | -29.5% (inactive) |
| CC(C)C(=O)N1CCN(c2nc(-c3ccccc3)c3c(c2C#N)CC(C)(C)OC3)CC1 | -5.6% (inactive) |
| Cc1ccc(CC2S/C(=C(/C#N)C(=O)NCc3ccco3)N(c3ccccc3)C2=O)cc1 (stereo not given) | 2.8% (inactive) |
| O=C1c2oc3ccccc3c(=O)c2C(c2cccc(F)c2)N1CCCO (stereo not given) | 6.3% (inactive) |
| O=C1C(=O)c2ccccc2-c2ccccc21 | -13.5% (inactive) |
| COc1ccccc1N(C)S(=O)(=O)c1ccc(C(=O)NCC(C)C)cc1 | 2.3% (inactive) |
| C/C(Cl)=C\Cn1c(NCCCn2ccnc2)nc2c1c(=O)n(C)c(=O)n2C | -1.5% (inactive) |
| CC(=O)c1cccc(NC(=O)NCc2cccnc2)c1 | 12.9% (inactive) |
| COc1ccc(C(=O)c2ccc(N(C)C)cc2)c2ccccc12 | -3.3% (inactive) |
| CCCOc1ccc(/C(O)=C2/C(=O)C(=O)N(CCOC)C2c2cccnc2)cc1 (stereo not given) | -4.5% (inactive) |

| SMILES | inhibition |
| --- | --- |
| O=C(CSc1nc2ccccc2s1)NNC(=S)Nc1ccc(Br)cc1 | -0.6% (inactive) |
| COC(=O)c1cccc(S(=O)(=O)N(Cc2ccco2)Cc2cc3ccc(OC)cc3[nH]c2=O)c1 | -3.3% (inactive) |
| NC(=S)N/N=C/c1ccc(-c2ccc(Cl)c(Cl)c2)o1 | -6.9% (inactive) |
| CCC(=O)c1c[nH]c(C(=O)NCC2CCCO2)c1 (stereo not given) | -0.5% (inactive) |
| O=c1c2c3c(sc2nc2n1CCC2)CCC3 | -14.6% (inactive) |
| O=C(CN1CCN(c2nc(-c3ccc(F)cc3)cs2)CC1)Nc1ccc2c(c1)OCO2 | -7.5% (inactive) |
| Cc1nonc1NC(=O)CSc1nc(C2CCCCC2)nc2ccccc12 | -6.5% (inactive) |
| O=S(=O)(c1ccc(Cl)cc1)c1snnc1-c1ccccc1 | 9.2% (inactive) |
| COc1cc(C(=O)Nc2ccc(S(=O)(=O)NC(C)(C)C)cc2)cc(OC)c1OC | -3.5% (inactive) |
| Cc1cc(/C=C2\SC(=Nc3ccc(F)cc3)NC2=O)c(C)n1-c1ccc(S(N)(=O)=O)cc1 | -17.9% (inactive) |
| N#Cc1cc2c(nc1SCC(=O)N1CCCCC1)CCCC2 | 2.1% (inactive) |
| CCN(CC)c1ccc(-c2nn3c(-c4n[nH]c5c4CCC5)nnc3s2)cc1 | 5.7% (inactive) |
| O=[N+]([O-])c1cnccc1Nc1ccc(F)cc1 | 4.7% (inactive) |
| CCOC(=O)c1oc2ccccc2c1NC(=O)Cc1cccs1 | 0.3% (inactive) |
| CNC(=O)CN(c1ccc(OC)cc1)S(=O)(=O)c1ccc(F)cc1 | -9% (inactive) |
| CCN1CCN(C(=O)CN(CCc2ccccc2)S(C)(=O)=O)CC1 | -9.3% (inactive) |
| COc1ccc(OC)c2sc(NC(=O)CCS(=O)(=O)c3ccccc3)nc12 | -5.2% (inactive) |
| COc1cccc(CSc2nc3ccccc3cc2C=O)c1 | 3.2% (inactive) |
| O=C(NCc1ccccc1)NC1(C(=O)N2CCCC2)CCCCC1 | 5.3% (inactive) |
| Cc1ccc(S(=O)(=O)c2cc(C#N)c(=O)[nH]c2N)cc1 | 9.1% (inactive) |
| CCOC(=O)/C(=C\c1cccnc1)C(=O)c1cc(C(C)=O)c(Nc2ccccc2)s1 | 5.1% (inactive) |
| CN1C(=O)C(C(=O)NC(C)(C)C)C2c3ccccc3OC13CCCCC23 (stereo not given) | 1.7% (inactive) |

From PubChem BioAssay AID1249 (Columbia University Molecular Screening Center, 2008)
